Where a name gives a salt, the structure may show the parent alone.
Assay: RP, Waters CORTECS UPLC C18, 100 × 2.1 mm, 1.6 µm, 40 °C, 0.4 mL/min, estimated dead time 0.55 min; A: water + 0.1% formic acid, pH 3; B: acetonitrile + 0.1% formic acid, pH 3; gradient (min/%B) 0/5 1.12/5 6.41/99.5 10.01/99.5
Settings: stereoisomer not certain

SMILES | LC retention time [min]
NCCc1ccc(O)cc1 [TYRAMINE] | 0.755
COC=C(C(=O)OC)c1ccccc1Oc1cc(Oc2ccccc2C#N)ncn1 [Azoxystrobin] | 4.91
CC(C)N(C(=O)COc1nnc(C(F)(F)F)s1)c1ccc(F)cc1 [Flufenacet] | 5.22
CCOC(=O)CC(SP(=O)(OC)OC)C(=O)OCC (stereo not drawn) [Malaoxon] | 4.05
CCOP(=S)(OCC)Oc1nc(Cl)c(Cl)cc1Cl [Dursban] | 6.17
N#CN=C1SCCN1Cc1ccc(Cl)nc1 [Thiacloprid] | 3.6
CN(C)C(=O)Nc1cccc(C(F)(F)F)c1 [Fluometuron] | 4.2
CNC(=O)ON=C(CSC)C(C)(C)C [Thiofanox] | 4.76
COCC(=O)N(c1c(C)cccc1C)N1CCOC1=O [Oxadixyl] | 3.8
CC1COC(Cn2cncn2)(c2ccc(Oc3ccc(Cl)cc3)cc2Cl)O1 (stereo not drawn) [Difenoconazole] | 5.46
COC(=O)c1sccc1S(=O)(=O)NC(=O)Nc1nc(C)nc(OC)n1 [Thifensulfurson methyl] | 3.9
CC(C)(C)C(O)C(=Cc1ccc(Cl)cc1Cl)n1cncn1 (stereo not drawn) [Diniconazole] | 5.27
CNC(=O)Oc1cccc2ccccc12 [Carbaryl] | 3.14
CCOC1Oc2ccc(OS(C)(=O)=O)cc2C1(C)C (stereo not drawn) [Ethofumesate] | 5.04
c1coc(-c2nc3ccccc3[nH]2)c1 [Fuberidazole] | 2.63
COC=C(C(=O)OC)c1ccccc1COc1cccc(C(F)(F)F)n1 [Picoxystrobin] | 5.45
CON=C(C(=O)OC)c1ccccc1COc1ccccc1C [Kresoxim-methyl] | 5.42
CNC(=O)N(C)c1nc2ccccc2s1 [Methabenzthiazurone] | 4.12
CC(C1CC1)C(O)(Cn1cncn1)c1ccc(Cl)cc1 (stereo not drawn) [Cyproconazole] | 4.78
CCC(C)C1OC2(C=CC1C)CC1CC(CC=C(C)C(OC3CC(OC)C(OC4CC(OC)C(O)C(C)O4)C(C)O3)C(C)C=CC=C3COC4C(O)C(C)=CC(C(=O)O1)C34O)O2 (stereo not drawn) [Mixture of Avermectin B1a and B1b] | 6.5
Cc1cc(C(F)(C(F)(F)F)C(F)(F)F)ccc1NC(=O)c1cccc(I)c1C(=O)NC(C)(C)CS(C)(=O)=O [Flubendiamide] | 5.35
CCc1nn(C)c(C(=O)NCc2ccc(C(C)(C)C)cc2)c1Cl [Tebufanpyrad] | 5.93

SMILES | LC retention time [min]
CCOC(=O)N(C)C(=O)CSP(=S)(OCC)OCC [Mecarbam] | 5.34
CON=C(C(=O)OC)c1ccccc1CON=C(C)c1cccc(C(F)(F)F)c1 [Trifloxystrobin] | 5.81
CCN(CC)c1nc(C)cc(OP(=S)(OC)OC)n1 [Pirimiphos-methyl] | 5.67
COP(N)(=S)Oc1ccccc1C(=O)OC(C)C (stereo not drawn) [Isocarbophos] | 2.32
COC(=O)Nc1cccc(OC(=O)Nc2cccc(C)c2)c1 [Phenmediphan] | 4.71
COC(=O)C(C)N(C(=O)c1ccco1)c1c(C)cccc1C (stereo not drawn) [Furalaxyl] | 4.79
CCOP(=O)(SC(C)CC)N1CCSC1=O (stereo not drawn) [Fosthiazate] | 4.22
COc1cccc(C(=O)NN(C(=O)c2cc(C)cc(C)c2)C(C)(C)C)c1C [Methoxyfenozide] | 5.09
CCCC(Cn1cncn1)c1ccc(Cl)cc1Cl (stereo not drawn) [Penconazole] | 5.19
NCCc1c[nH]c2ccccc12 [TRYPTAMINE] | 2.43
CCOC(=O)C(Cl)Cc1cc(-n2nc(C)n(C(F)F)c2=O)c(F)cc1Cl (stereo not drawn) [Carfentrazone-ethyl] | 5.39
COc1cc(C)c(C(=O)c2c(OC)ccc(Br)c2C)c(OC)c1OC [Metrafenone] | 4.52
CCCCC(C#N)(Cn1cncn1)c1ccc(Cl)cc1 (stereo not drawn) [Myclobutanil] | 4.93
CC(C)C1CCC(Cc2ccc(Cl)cc2)C1(O)Cn1cncn1 (stereo not drawn) [Ipconazole] | 5.48
CCOC(=O)C(SP(=S)(OC)OC)c1ccccc1 (stereo not drawn) [Phenthoate] | 5.54
O=C(Nc1ccccc1)Nc1ccnc(Cl)c1 [Forchlorfenuron] | 4.19
CCOP(=S)(OCC)SCn1c(=O)oc2cc(Cl)ccc21 [Phosalone] | 5.7
COP(=S)(OC)Oc1c(Cl)cc(C)cc1Cl [Tolclosof methyl] | 5.72
O=C(NC(=O)c1c(F)cccc1F)Nc1cc(Cl)c(OC(F)(F)C(F)C(F)(F)F)cc1Cl (stereo not drawn) [Lufenuron] | 5.91
COP(=S)(OC)Oc1nc(Cl)c(Cl)cc1Cl [Chlorpyriphos-methyl] | 5.73
CCCSP(=O)(OCC)SCCC [Ethoprop] | 5.02

Now from value to molecule:

LC retention time [min] | SMILES
4.37 | CCN(CC)C(=O)c1cccc(C)c1 [Deet]
2.27 | CCC(C)C(=O)NCC(=O)O (stereo not drawn) [N-(2-Methylbutyryl)glycine]
2.53 | c1ccc2[nH]c(-c3cscn3)nc2c1 [Thiabendazole]
2.34 | Cc1cc2nc3c(=O)[nH]c(=O)nc-3n(CC(O)C(O)C(O)COP(=O)(O)OP(=O)(O)OCC3OC(n4cnc5c(N)ncnc54)C(O)C3O)c2cc1C (stereo not drawn) [FAD]
4.62 | C=CCCCCCCCC(=O)O [9-Decenoic acid]
0.76 | Nc1nc2nc[nH]c2c(=O)[nH]1 [GUANINE]
3.4 | O=C(O)Cc1c[nH]c2ccccc12 [3-Indoleacetic acid]
4.86 | Cc1ccc(C(C)NC(=O)C(NC(=O)OC(C)C)C(C)C)cc1 (stereo not drawn) [Iprovalicarb]
5.13 | CCCCCCCCCCCCCC(=O)OC(CC(=O)[O-])C[N+](C)(C)C [Myristoyl-L-carnitine]
7.4 | CC(C)CCC[C@@H](C)[C@H]1CC[C@H]2[C@@H]3[C@H](O)CC4=CC(=O)CC[C@]4(C)[C@H]3CC[C@]12C [7α-Hydroxy-4-cholesten-3-one]
2.47 | O=C(O)CCCCC(=O)O [ADIPATE]
4.49 | CCOC(=O)Cc1c[nH]c2ccccc12 [ETHYL 3-INDOLEACETATE]
3.69 | CC12CCC(=O)C=C1CCC1C2C(=O)CC2(C)C1CCC2(O)C(=O)CO (stereo not drawn) [CORTISONE]
0.963 | CC1(O)CCOC(=O)C1 (racemic) [(±)-Mevalonolactone]
3.14 | CN(C)C(=O)Nc1ccccc1 [Fenuron]
5.35 | CCCCCC=CCC=CCC=CCC=CCCCC(=O)OC(CC(=O)[O-])C[N+](C)(C)C [Arachidonyl-L-carnitine]
3.22 | Cc1ccc(N=c2sccn2C)c(C)c1 [Cymiazol hydrochloride]
3.67 | CC12CCC(=O)C=C1CCC1C2C(O)CC2(C)C1CCC2(O)C(=O)CO (stereo not drawn) [CORTISOL]
5.25 | CNC(=O)C(=NOC)c1ccccc1COc1cc(C)ccc1C [Dimoxystrobin]
2.7 | O=C(O)CCCCC1SCC2NC(=O)NC21 (stereo not drawn) [BIOTIN]
4.7 | CCCCCCCCCCCC(=O)OC(CC(=O)[O-])C[N+](C)(C)C [Lauroyl-L-carnitine]
0.768 | Cc1ncc(CO)c(C(=O)O)c1O [4-PYRIDOXATE]
2.88 | NC(=O)c1ccccc1O [SALICYLAMIDE]

LC retention time [min] | SMILES
0.727 | O=c1[nH]c(=O)c2[nH]c(=O)[nH]c2[nH]1 [URATE]
5.38 | CCCCCC=CCC=CCCCCCCCC(=O)OC(CC(=O)[O-])C[N+](C)(C)C [cis,cis-9,12-Octadecadienoyl-L-carnitine]
7 | CCCCCCCCCCCCCCCCCCCC[n+]1cccc(S(=O)(=O)[O-])c1 [C20-APS]
4.21 | CCCCCCCCCC(=O)OC(CC(=O)[O-])C[N+](C)(C)C [Decanoyl-L-carnitine]
2.13 | O=Cc1cccc(O)c1 [3-HYDROXYBENZALDEHYDE]
2.29 | CC(=O)N[C@@H](Cc1ccc(O)cc1)C(=O)O [N-Acetyl-L-tyrosine]
2.47 | COC(=O)CCCC(=O)O [MONOMETHYLGLUTARATE]
3.13 | O=C(O)C(O)Cc1c[nH]c2ccccc12 (racemic) [DL-Indole-3-lactic acid]
0.931 | CC1OC(n2cnc3c(N)ncnc32)C(O)C1O (stereo not drawn) [5'-DEOXYADENOSINE]
5.19 | CCCCCCCCCCCCC[n+]1cccc(S(=O)(=O)[O-])c1 [C13-APS]
3.05 | CCCCCC(=O)OC(CC(=O)[O-])C[N+](C)(C)C [Hexanoyl-L-carnitine]
1.08 | O=C(O)c1ccc(C(=O)O)o1 [2,5-Furandicarboxylic acid]
1.25 | NC(Cc1ccccc1)C(=O)O (stereo not drawn) [PHENYLALANINE]
6.58 | CCCCCCCCCCCCCCCCCC[n+]1cccc(S(=O)(=O)[O-])c1 [C18-APS]
5.2 | CC(=O)OCC(=O)C1CCC2C3CCC4=CC(=O)CCC4(C)C3CCC12C (stereo not drawn) [DEOXYCORTICOSTERONE ACETATE]
6.07 | CCCCCCCCCCCCCCCC[n+]1cccc(S(=O)(=O)[O-])c1 [C16-APS]
3.32 | CCCCCCC[n+]1cccc(S(=O)(=O)[O-])c1 [C7-APS]
0.798 | OC1COC(O)C(O)C1O (stereo not drawn) [ARABINOSE]
2.29 | O=C(O)C(=O)Cc1ccccc1 [Phenylpyruvic acid]
4.18 | CC(CCC(=O)NCCS(=O)(=O)O)C1CCC2C3C(O)CC4CC(O)CCC4(C)C3CCC12C (stereo not drawn) [Tauroursodeoxycholic acid]
4.08 | CC(CCC(=O)NCC(=O)O)C1CCC2C3C(O)CC4CC(O)CCC4(C)C3CC(O)C12C (stereo not drawn) [Glycocholic acid hydrate]
2.69 | N[C@@H](Cc1cc(I)c(O)c(I)c1)C(=O)O [3,5-DIIODO-L-TYROSINE]

From the RepoRT retention time repository
